Measurements: publication PMC11277439, “The role of lysosomal phospholipase A2 in the catabolism of bis(monoacylglycerol)phosphate and association with phospholipidosis” (Journal of Lipid Research, 2024)

molecular target: T1, recombinant human LPLA2 (hLPLA2) (Homo sapiens, UniProt Q8NCC3); assay: oleic acid release from liposomes, HPTLC; format: biochemical; conditions: DODPC/S,S-(3,3′,C18:1)-BMP liposomes (2.3:1), 50 mM sodium acetate pH 4.5, 37°C, 5 min pre-incubation of drug with liposomes; read-out: Lipase Inhibition IC50 μM (BMP)^g
T1 construct: gene PLA2G15; recombinant human enzyme from Proteos
T1 sequence (Q8NCC3 34-412): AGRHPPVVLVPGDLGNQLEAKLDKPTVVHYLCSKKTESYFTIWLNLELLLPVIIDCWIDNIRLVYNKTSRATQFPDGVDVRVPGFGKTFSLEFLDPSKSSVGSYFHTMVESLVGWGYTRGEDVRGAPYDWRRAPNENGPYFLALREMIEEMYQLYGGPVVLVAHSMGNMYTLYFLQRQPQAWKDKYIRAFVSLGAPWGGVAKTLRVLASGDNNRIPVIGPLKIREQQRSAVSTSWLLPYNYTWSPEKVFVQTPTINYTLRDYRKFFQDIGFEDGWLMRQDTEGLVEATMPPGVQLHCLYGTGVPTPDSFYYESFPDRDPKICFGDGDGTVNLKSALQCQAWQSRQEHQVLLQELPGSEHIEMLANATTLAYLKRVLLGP
Excerpt: oleic acid release from liposomes, HPTLC on recombinant human LPLA2 (hLPLA2)

Row | IC50 [µM] | Compound
1 | 28.7 | CC[C@H](NC(=O)c1c(C)c(-c2ccccc2)nc2ccccc12)c1ccccc1 [SB222200, 3-methyl-2-phenyl-N-[(1S)-1-phenylpropyl]quinoline-4-carboxamide]
2 | 18 | CCCCc1oc2ccccc2c1C(=O)c1cc(I)c(OCCN(CC)CC)c(I)c1 [amiodarone, (2-butyl-1-benzofuran-3-yl)-[4-[2-(diethylamino)ethoxy]-3,5-diiodophenyl]methanone]
3 | 24 | CCOC(=O)C1=C(COCCN)NC(C)=C(C(=O)OC)C1c1ccccc1Cl (stereo not drawn) [amlodipine, 3-O-ethyl 5-O-methyl 2-(2-aminoethoxymethyl)-4-(2-chlorophenyl)-6-methyl-1,4-dihydropyridine-3,5-dicarboxylate]
4 | 16 | CC(C)(C)c1ccc(CN2CCN(C(c3ccccc3)c3ccc(Cl)cc3)CC2)cc1 (stereo not drawn) [buclizine, 1-[(4-tert-butylphenyl)methyl]-4-[(4-chlorophenyl)-phenylmethyl]piperazine]
5 | 34.7 | COc1ccccc1OCCNCC(O)COc1cccc2[nH]c3ccccc3c12 (stereo not drawn) [carvedilol, 1-(9H-carbazol-4-yloxy)-3-[2-(2-methoxyphenoxy)ethylamino]propan-2-ol]
6 | 9.7 | CN(C)CCCN1c2ccccc2Sc2ccc(Cl)cc21 [chlorpromazine, 3-(2-chlorophenothiazin-10-yl)-N,N-dimethylpropan-1-amine]
7 | 13.2 | CN(C)CCC=C1c2ccccc2C=Cc2ccccc21 [cyclobenzaprine, N,N-dimethyl-3-(2-tricyclo[9.4.0.03,8]pentadeca-1(15),3,5,7,9,11,13-heptaenylidene)propan-1-amine]
8 | 0.849 | CCC(=O)O[C@@H](O[P@](=O)(CCCCc1ccccc1)CC(=O)N1C[C@H](C2CCCCC2)C[C@H]1C(=O)O)C(C)C [fosinopril, (2S,4S)-4-cyclohexyl-1-[2-[(2-methyl-1-propanoyloxypropoxy)-(4-phenylbutyl)phosphoryl]acetyl]pyrrolidine-2-carboxylic acid]
9 | 39.9 | O=C(O)[C@@H]1C[C@@H](C2CCCCC2)CN1C(=O)CP(=O)(O)CCCCc1ccccc1 [fosinoprilat, (2S,4S)-4-cyclohexyl-1-{2-[hydroxy(4-phenylbutyl)phosphoryl]acetyl}pyrrolidine-2-carboxylic acid]
10 | 18.5 | C[C@]12CC[C@@H]3c4ccc(O)cc4C[C@@H](CCCCCCCCC[S+]([O-])CCCC(F)(F)C(F)(F)F)[C@H]3[C@@H]1CC[C@@H]2O (stereo partly drawn) [fulvestrant, (7R,8R,9S,13S,14S,17S)-13-methyl-7-[9-(4,4,5,5,5-pentafluoropentylsulfinyl)nonyl]-6,7,8,9,11,12,14,15,16,17-decahydrocyclopenta[a]phenanthrene-3,17-diol]
11 | 41.7 | CN(CCCN1c2ccccc2CCc2ccccc21)CC(=O)c1ccc(Cl)cc1 [lofrepramine, 1-(4-chlorophenyl)-2-[3-(5,6-dihydrobenzo[b][1]benzazepin-11-yl)propyl-methylamino]ethanone]
12 | 21.8 | CCOC(=O)N1CCC(=C2c3ccc(Cl)cc3CCc3cccnc32)CC1 [loratadine, ethyl 4-{13-chloro-4-azatricyclo [9.4.0.03, 8]pentadeca1(11),3(8), 4,6,12,14-hexaen-2-ylidene}piperidine-1-carboxylate]
13 | 31.1 | C1CCC(C(CC2CCCCN2)C2CCCCC2)CC1 (stereo not drawn) [perhexiline, 2-(2,2-dicyclohexylethyl) piperidine]
14 | 40.9 | CCN(CC)C(C)CN1c2ccccc2Sc2ccccc21 (stereo not drawn) [profenamine, N,N-diethyl-1-phenothiazin-10-ylpropan-2-amine]
15 | 45.8 | CC(C)NCC(O)COc1cccc2ccccc12 (stereo not drawn) [propranolol, 1-(naphthalen-1-yloxy)-3-[(propan-2-yl)amino] propan-2-ol]
16 | 50.6 | O=C(c1ccc(OCCN2CCCCC2)cc1)c1c(-c2ccc(O)cc2)sc2cc(O)ccc12 [raloxifene, [6-hydroxy-2-(4-hydroxyphenyl)-1-benzothiophen-3-yl]-[4-(2-piperidin-1-ylethoxy)phenyl]methanone]
17 | 20.9 | NCC[C@H](Oc1ccc(C(F)(F)F)cc1)c1ccccc1 [seproxitine, (3S)-3-phenyl-3-[4-(trifluoromethyl)phenoxy]propan-1-amine]
18 | 20.1 | CC/C(=C(\c1ccccc1)c1ccc(OCCN(C)C)cc1)c1ccccc1 [tamoxifen]
